Each structure is given as a SMILES string. In brackets after ≈: the same amount, converted by molar mass.

The text below walks through data of ChEMBL document CHEMBL1152154, “Bacterial translation inhibitors, 1-acylindazol-3-ols as anthranilic acid mimics” (2008).

Holding throughout (assay type): functional
Experiment [1] relates to Staphylococcus aureus. Nature of the experiment: Antibacterial activity against Staphylococcus aureus UC9218 in presence of 10% human serum.
The subject of experiment [2] is Staphylococcus aureus. Description: Antibacterial activity against Staphylococcus aureus RN4220 at 100 uM by transcription-translation assay.
The subject of experiment [3] is Staphylococcus aureus. Nature of the experiment: Antibacterial activity against Staphylococcus aureus UC9218.

Consider `N#Cc1ccc2c(c1)c(=O)[nH]n2C(=O)c1cccc(S(=O)(=O)N2CCc3ccccc32)c1`, for which the MIC in experiment [1] was found to be 8 mg/L; in experiment [3] it was 0.5 mg/L (≈ 1.12 µM). This compound also showed an inhibition at 100 µM in experiment [2] of 13%.
As to `N#Cc1ccc2c(c1)c(=O)[nH]n2C(=O)c1cc2cccc(S(=O)(=O)c3ccccc3)c2[nH]1`, the minimum inhibitory concentration (MIC) was greater than 128 mg/L in experiment [1] and 16 mg/L (≈ 36.2 µM) in experiment [3].
Consider `O=C(c1cccc(S(=O)(=O)N2CCc3ccccc32)c1)n1[nH]c(=O)c2cc(Br)ccc21`, for which the figures for the MIC in experiment [1] and in experiment [3] were 128 mg/L and 8 mg/L (≈ 16.1 µM), respectively. In experiment [2], this compound registered an inhibition at 100 µM of 52%.
As to `Cn1c(C(=O)n2[nH]c(=O)c3cc(C#N)ccc32)cc2cccc(S(=O)(=O)c3ccccc3)c21`, the minimum inhibitory concentration (MIC) worked out at 64 mg/L in experiment [1] and 4 mg/L (≈ 8.76 µM) in experiment [3].
For `O=C(c1cc2cccc(S(=O)(=O)c3ccccc3)c2[nH]1)n1[nH]c(=O)c2cc(Br)ccc21`, the results for the MIC in experiment [1] and in experiment [3] were 128 mg/L and 16 mg/L (≈ 32.2 µM), respectively.
Turning to `O=C(c1cccc(S(=O)(=O)N2CCOCC2)c1)n1[nH]c(=O)c2cc(Br)ccc21`, the minimal inhibitory concentration (MIC) in experiment [1] and in experiment [3] was greater than 128 mg/L each time. The compound also displayed an inhibition at 100 µM in experiment [2] of 3%.
Consider `O=C(c1cnc(SCc2ccccc2)cn1)n1[nH]c(=O)c2cc(Br)ccc21`, for which the minimal inhibitory concentration (MIC) in experiment [1] and in experiment [3] was greater than 128 mg/L in each case. Besides, the inhibition at 100 µM in experiment [2] came to 5%.
Turning to `O=C(c1ccc(S(=O)(=O)N2CCc3cc(Cl)ccc32)cc1)n1[nH]c(=O)c2cc(Cl)ccc21`, the MIC was greater than 128 mg/L in experiment [1] and 16 mg/L (≈ 32.8 µM) in experiment [3]. This compound gave an inhibition at 100 µM in experiment [2] of 61%.
Consider `N#Cc1ccc2c(c1)c(=O)[nH]n2C(=O)c1cnc(SCc2ccccc2)cn1`, for which the MIC in experiment [1] and in experiment [3] was greater than 128 mg/L in each case. In experiment [2], the inhibition at 100 µM is 22%.
As for `O=C(c1cccc(S(=O)(=O)N2CCOCC2)c1)n1[nH]c(=O)c2cc(Cl)ccc21`, the MIC in experiment [1] and in experiment [3] was greater than 128 mg/L throughout. Moreover, the inhibition at 100 µM in experiment [2] was 5%.
On to `O=C(c1cc(-c2ccccc2)on1)n1[nH]c(=O)c2cc(Br)ccc21`, for which the minimal inhibitory concentration (MIC) in experiment [1] was greater than 128 mg/L; in experiment [3], 16 mg/L (≈ 41.6 µM). In experiment [2], this compound returned an inhibition at 100 µM of 42%.
The matching figures for `O=C(c1ccc(S(=O)(=O)N2CCc3cc(Cl)ccc32)cc1)n1[nH]c(=O)c2ccc(Cl)cc21`: greater than 128 mg/L, 8 mg/L (≈ 16.4 µM) and 86%.
The matching figures for `CC(C)Sc1ccc(C(=O)n2[nH]c(=O)c3cc(Br)ccc32)cn1`: greater than 128 mg/L, greater than 128 mg/L and 49%.
As to `O=C(c1cncc(SCc2ccccc2)n1)n1[nH]c(=O)c2cc(Br)ccc21`, the values for the MIC in experiment [1] and in experiment [3] were greater than 128 mg/L and 32 mg/L (≈ 72.5 µM), respectively. The inhibition at 100 µM in experiment [2] amounted to 28%.
Turning to `N#Cc1ccc2c(c1)c(=O)[nH]n2C(=O)c1cc2ccccc2[nH]1`, the figures for the minimum inhibitory concentration (MIC) in experiment [1] and in experiment [3] were greater than 128 mg/L and 64 mg/L (≈ 212 µM), respectively. In experiment [2], this compound gave an inhibition at 100 µM of 99%.
For the compound `O=C(c1cccc(S(=O)(=O)N2CCc3cc(Cl)ccc32)c1)n1[nH]c(=O)c2cc(Br)ccc21`, the MIC in experiment [1] worked out at 128 mg/L; in experiment [3], 4 mg/L (≈ 7.51 µM). In experiment [2], at 100 µM the inhibition was 20%.
Take `O=C(c1cccc(S(=O)(=O)N2CCc3cc(Cl)ccc32)c1)n1[nH]c(=O)c2cc(Cl)ccc21`: the minimal inhibitory concentration (MIC) in experiment [1] stood at 128 mg/L; in experiment [3], 4 mg/L (≈ 8.19 µM). Besides, 100 µM produced 80% inhibition in experiment [2].
The matching figures for `CN(c1ccc(Cl)cc1)S(=O)(=O)c1cccc(C(=O)n2[nH]c(=O)c3cc(Br)ccc32)c1`: greater than 128 mg/L, greater than 128 mg/L and 55%.
The matching figures for `N#Cc1ccc2c(c1)c(=O)[nH]n2C(=O)c1cncc(SCc2ccccc2)n1`: greater than 128 mg/L, greater than 128 mg/L and 7%.
The matching figures for `O=C(c1cccc(S(=O)(=O)N2CCc3cc(Cl)ccc32)c1)n1[nH]c(=O)c2ccc(Br)cc21`: greater than 128 mg/L, 8 mg/L (≈ 15 µM) and 67%.
With `CN(c1ccc(Cl)cc1)S(=O)(=O)c1cc(Br)cc(C(=O)n2[nH]c(=O)c3cc(Br)ccc32)c1`, the MIC in experiment [1] and in experiment [3] was greater than 128 mg/L in each case. This compound gave an inhibition at 100 µM in experiment [2] of 29%.
Consider `Cc1ccc2c(c1)c(=O)[nH]n2C(=O)c1cccc(S(=O)(=O)N2CCc3cc(Cl)ccc32)c1`, for which the MIC is greater than 128 mg/L in experiment [1] and 16 mg/L (≈ 34.2 µM) in experiment [3]. Further, the inhibition at 100 µM in experiment [2] amounted to 49%.
On to `Cn1c(C(=O)n2[nH]c(=O)c3cc(C#N)ccc32)cc2ccccc21`, for which the MIC was greater than 128 mg/L in experiment [1] and 64 mg/L (≈ 202 µM) in experiment [3]. Besides, 100 µM produced 49% inhibition in experiment [2].
The matching figures for `O=C(c1cccc(S(=O)(=O)N2CCc3cc(Cl)ccc32)c1)n1[nH]c(=O)c2ccc(Cl)cc21`: greater than 128 mg/L, 8 mg/L (≈ 16.4 µM) and 78%.
On to `O=C(c1cccc(S(=O)(=O)N2CCc3cc(Cl)ccc32)c1)n1[nH]c(=O)c2cc(OC(F)(F)F)ccc21`, for which the MIC was greater than 128 mg/L in experiment [1] and 4 mg/L (≈ 7.44 µM) in experiment [3]. Also, the inhibition at 100 µM in experiment [2] turned out to be 78%.
The matching figures for `N#Cc1ccc2c(c1)c(=O)[nH]n2C(=O)c1cccc(S(=O)(=O)N2CCOCC2)c1`: 64 mg/L, 64 mg/L (≈ 155 µM) and 10%.
Consider `Cn1c(C(=O)n2[nH]c(=O)c3cc(Br)ccc32)cc2cccc(S(=O)(=O)c3ccccc3)c21`, for which the minimum inhibitory concentration (MIC) in experiment [1] was 128 mg/L; in experiment [3], 2 mg/L (≈ 3.92 µM).
For `O=C(c1ccc(S(=O)(=O)N2CCc3cc(Cl)ccc32)cc1)n1[nH]c(=O)c2cc(Br)ccc21`, the minimal inhibitory concentration (MIC) in experiment [1] was greater than 128 mg/L; in experiment [3] it was 8 mg/L (≈ 15 µM). This compound yielded an inhibition at 100 µM in experiment [2] of 56%.
The matching figures for `O=C(c1cccc(S(=O)(=O)N2CCc3cc(Cl)ccc32)c1)n1[nH]c(=O)c2cc(C(F)(F)F)ccc21`: greater than 128 mg/L, 8 mg/L (≈ 15.3 µM) and 62%.
The matching figures for `N#Cc1ccc2c(c1)c(=O)[nH]n2C(=O)c1ccc(S(=O)(=O)N2CCc3cc(Cl)ccc32)cc1`: greater than 128 mg/L, 64 mg/L (≈ 134 µM) and 5%.
